This assay deals with 947758-054-R-J2-PDC spheroid growth, percent test/control. Put plainly: Anticancer human tumor 947758-054-R-J2-PDC patient-derived colon adenocarcinoma cell line growth inhibition [CLK]. Particulars: spheroids with HUVEC and MSC; for viability, T/C: stronger effect = lower value; for pIC50: curve of compound. From the text:
A high-throughput screen of multi-cell type tumor spheroids was designed to identify active combinations of […] and targeted small molecules. Complex spheroids include a stromal component modeled by human endothelial cells (HUVEC) and fibroblasts modeled by human mesenchymal stem cells (MSCs). The concentration ranges selected for each drug and investigational agent were based upon clinically achievable concentrations if the clinical Cmax of the agent was known.
Compounds. The drugs and investigational agents: cirtuvivint (SM08502; NSC835563), CC-671 (NSC850746), vemurafenib (NSC761431), tapotoclax (NSC804041), sotorasib (NSC818433), adagrasib (NSC831453), MRTX-1133 (NSC836407), BAY2416964 (NSC825713), copanlisib (NSC816437), inavolisib (NSC800729), abemaciclib (NSC768073), osimertinib (NSC779217), entinostat (NSC756642), eltanexor (KPT-8602, NSC794443), venetoclax (NSC766270), ceralasertib (NSC777638), bortezomib (NSC756655), olaparib (NSC753686), talazoparib (NSC767125), alisertib (NSC759677), peposertib (NSC802822), gemcitabine (NSC613327), 5-fluorouracil (NSC19893), SN-38 (NSC673596), oxaliplatin (NSC266046), paclitaxel (NSC125973), and doxorubicin (NSC123127), were obtained from the National Cancer Institute (NCI) Developmental Therapeutics Program Chemical Repository. The FDA-approved anticancer drug set is available from the Developmental Therapeutics Program at https://dtp.cancer.gov/organization/dscb/obtaining/available plates.htm. […] The stock solutions were prepared in dimethyl sulfoxide (DMSO, Sigma-Aldrich, St. Louis, MO, cat. D2650), except for the platinum complexes which were prepared in saline (Quality Biological, Gaithersburg, MD, cat. 114-055-101), at 800-fold the tested concentration and stored at -70 degrees C prior to their use. All drugs and investigational agents were tested over a range starting from a high concentration at or near the clinical Cmax and decreasing in half-log increments. If the clinical Cmax for an agent had not been determined, the highest concentration tested was 10 microM.
Cell Culture. All cells were maintained in an incubator at 37 degrees C and 5% CO2 with 95% humidity. The PDC lines were cultured according to standard operating procedures established by the NCI PDMR. Briefly, all PDCs were thawed and cultured in Matrigel-coated flasks prepared with a working solution of 1X Ham's F-12 nutrient mix, without supplementation (Invitrogen, Waltham, MA, cat. 11765054), 100 U/mL penicillin-streptomycin (Invitrogen, cat. 15140122), and 2.5% Matrigel (Corning Inc., Corning, NY, cat. 354248) for the first three passages. The 947758-054-R-J2-PDC line was cultured in 6B/Colon 1A media, which includes advanced DMEM/F-12 (Thermo Fisher Scientific, cat. 12634028), 10 mM HEPES (Thermo Fisher Scientific, cat. 15630080), 1X GlutaMAX supplement (Thermo Fisher Scientific, cat. 35050061), 0.1 mg/mL primocin (InvivoGen, cat. ant-pm-2), 10% defined fetal bovine serum, heat inactivated (HyClone Laboratories Inc., cat. SH30070.03HI), 1.25 mM N-Acetyl-L-cysteine (Sigma-Aldrich, cat. A9165), 10 mM nicotinamide (Sigma-Aldrich, cat. N0636), 1X B-27 supplement (Thermo Fisher Scientific, cat. 17504044), 1X N-2 supplement (Thermo Fisher Scientific, cat. 17502048), and 10 microM Y-27632 dihydrochloride (Tocris Bioscience, cat. 1254). The 876862-298-R-J1-PDC was cultured in 6E media, which includes all 6B/Colon 1A media components plus 50% L-WRN conditioned media (ATCC, cat. CRL-3276), 50 ng/mL recombinant human EGF recombinant protein (hEGF; Thermo Fisher Scientific, cat. PHG0311), 10 ng/mL recombinant human fibroblast growth factor 10 (hGFG-10; PeproTech, cat. 100-26), 1 ng/mL recombinant human fibroblast growth factor 2 (hFGF-2; PeproTech, cat. 100-18B), and 1 µM prostaglandin E2 (PGE2; Tocris, cat. 2296). The 227483-062-R1-J1-PDC line was cultured in Panc media, containing all 6E components except hFGF-2, with the addition of 500 nM SB-431542 (Selleckchem, cat. S1067) and 10 nM gastrin (Tocris, cat. 3006). […]

SMILES strings stand for the structures. pIC50: −log10 of the molar value. Several values for one entry are separate records, joined by “and”; a condition that tells them apart may be missing. Equal values may be shown once.
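Also: spheroids exposed to compounds for one week before readout.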
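For viability, T/C in this document: 100% = DMSO vehicle control wells.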

`CCN1CCN(Cc2ccc(Nc3ncc(F)c(-c4cc(F)c5nc(C)n(C(C)C)c5c4)n3)nc2)CC1`: the pIC50 was 6.05 and < 6.00. Also, the viability, T/C (compound 0.00316 µM) was 81.3% and 94.8%. Besides, the viability, T/C (compound 0.01 µM) is 81.6% and 106%. For the same molecule, under “compound 0.0316 µM”, the viability, T/C is 139% and 190%. Besides, the viability, T/C (compound 0.1 µM) was 164% and 182%. In addition, the viability, T/C (compound 0.316 µM) was 130% and 126%. Also, the viability, T/C (compound 1 µM) was 43% and 55.8%.
Take `CCc1c2c(nc3ccc(O)cc13)-c1cc3c(c(=O)n1C2)COC(=O)[C@]3(O)CC`: the pIC50 was 8.07 and 8.15. Also, for the setting “compound 0.00316 µM”, the viability, T/C was 120% and 84.1%. Moreover, the viability, T/C (compound 0.01 µM) is 34.2% and 32%. Moreover, for the setting “compound 0.0316 µM”, the viability, T/C was 23.7% and 20.8%. The viability, T/C (compound 0.1 µM) was 18.7% and 19%. For the same molecule, the viability, T/C (compound 0.316 µM) is 8.36% and 8.83%. For the same molecule, the viability, T/C (compound 1 µM) was 3.07% and 3.43%.
`CNC(=O)c1ccc(Nc2nc(OC3CCCC3)c3c(-c4ccc5nc(C)oc5c4)c[nH]c3n2)c(OC)c1`: the viability, T/C runs as follows: (compound 0.0316 µM) 62.2% [middle of 12 runs]; (compound 1 µM) 56.2% [middle of 12 runs]; (compound 3.16 µM) 45.1% [middle of 12 runs]; (compound 10 µM) 36.8% [middle of 12 runs].
Turning to `COC1C=CCC(C)C(C)S(=O)(=O)NC(=O)c2ccc3c(c2)N(CC2CCC21)CC1(CCCc2cc(Cl)ccc21)CO3` (stereo not drawn), the pIC50 was 5.09. The viability, T/C (compound 0.0316 µM) is 99.1% and 84.9%. The viability, T/C (compound 0.1 µM) is 77.1% and 86.7%. Under “compound 0.316 µM”, the viability, T/C was 101% and 100%. Also, the viability, T/C (compound 1 µM) was 75.3% and 81.2%. The viability, T/C (compound 3.16 µM) is 94.4% and 83.8%. Moreover, the viability, T/C (compound 10 µM) is 41.3% and 42.6%.
In the case of `COc1c(OCCCN2CCOCC2)ccc2c3n(c(=NC(=O)c4cnc(N)nc4)nc12)CCN3`, the pIC50 is 6.61 and 6.65. Further, the viability, T/C (compound 0.00316 µM) was 107% and 111%. Also, for the setting “compound 0.01 µM”, the viability, T/C is 80.8% and 104%. Further, the viability, T/C (compound 0.0316 µM) was 111% and 105%. Besides, under “compound 0.1 µM”, the viability, T/C was 90.1% and 72%. Also, for the setting “compound 0.316 µM”, the viability, T/C was 38.9% and 41.3%. For the same molecule, under “compound 1 µM”, the viability, T/C was 23.1% and 22.7%.
Regarding `Cn1ncnc1[C@H]1c2n[nH]c(=O)c3cc(F)cc(c23)N[C@@H]1c1ccc(F)cc1`, the pIC50 was below 7.00. Further, where the note is “compound 0.000316 µM”, the viability, T/C was 90.1% and 87.9%. Moreover, the viability, T/C (compound 0.001 µM) is 103% and 93.8%. Besides, the viability, T/C (compound 0.00316 µM) was 96.8% and 101%. Also, the viability, T/C (compound 0.01 µM) was 96.7% and 94.4%. Besides, the viability, T/C (compound 0.0316 µM) was 117% and 87.6%. The viability, T/C (compound 0.1 µM) is 130% and 119%.
As to `NC(=O)C(=Cn1cnc(-c2cc(C(F)(F)F)cc(C(F)(F)F)c2)n1)c1cncnc1`, the negative logarithm of the IC50 (pIC50) was 6.85 and 6.83. Further, the viability, T/C (compound 0.00949 µM) was 101% and 94.5%. Moreover, the viability, T/C (compound 0.03 µM) was 91% and 92.6%. Further, the viability, T/C (compound 0.0949 µM) is 59.9% and 62.1%. Moreover, the viability, T/C (compound 0.3 µM) is 28.5% and 28.9%. For the same molecule, for the setting “compound 0.949 µM”, the viability, T/C was 10.5% and 10%. Besides, the viability, T/C (compound 3 µM) was 2.27% and 3.82%.
Consider `Nc1ccccc1NC(=O)c1ccc(CNC(=O)OCc2cccnc2)cc1`, for which the pIC50 was 5.29 and 5.44. Besides, where the note is “compound 0.0316 µM”, the viability, T/C was 102% and 80.7%. Moreover, the viability, T/C (compound 0.1 µM) is 105% and 97.2%. Also, the viability, T/C (compound 0.316 µM) is 115% and 90.4%. The viability, T/C (compound 1 µM) is 96% and 121%. Further, under “compound 3.16 µM”, the viability, T/C was 77.7% and 55.5%. In addition, where the note is “compound 10 µM”, the viability, T/C was 13.9% and 11.4%.

By viability, T/C is commonly meant the ratio of treated to control. One may read the pIC50 as the IC50 on a negative log10 scale, so that one unit is a factor of ten.

The values above are taken from PubChem BioAssay AID2060605 (Molecular Pharmacology Branch, DTP, NCI, 2025).
